Experiment: Solubility in 0.1 M phosphate buffer at pH 7
Assay type: physicochemical
Conditions: 0.1 M phosphate buffer at pH 7, 10 mg/mL final peptide concentration, shaking 2 hours at room temperature, peptides as TFA-salts; measured sample pH 6.5-7.0; read-out: Solubility
Method: Peptides (as TFA-salts) were weighed out in a filter unit (Mini-UniPrep Syringeless Filter 0.45 μm, Whatman PVDF), and 0.1 M phosphate buffer at pH 7 was added to achieve 10 mg/mL final peptide concentration. The peptides were dissolved by shaking the filter units horizontally at 600 rpm for 2 hours at room temperature. Samples were then filtered to remove any insoluble particles. Controls were prepared by weighing out the corresponding peptide solid material and dissolving it in an appropriate vehicle (e.g. ACN:H2O) to a final concentration of 1 mg/mL. Both, the control and sample were analyzed by reversed phase chromatography. The area under the peak of the sample was compared to the control and the solubility was calculated based on that ratio. The pH was measured and recorded for each sample.

## CC[C@H](C)[C@H](NC(=O)[C@H](CCCCN)NC(=O)[C@H](CCC(=O)O)NC(=O)[C@H](CC(C)C)NC(=O)C(C)(C)NC(=O)[C@@H](NC(=O)[C@H](CO)NC(=O)[C@H](Cc1ccc(O)cc1)NC(=O)[C@H](CC(=O)O)NC(=O)[C@H](CO)NC(=O)[C@@H](NC(=O)[C@H](Cc1ccccc1)NC(=O)[C@@H](NC(=O)CNC(=O)[C@H](CCC(=O)O)NC(=O)C(C)(C)NC(=O)[C@@H](N)Cc1ccc(O)cc1)[C@@H](C)O)[C@@H](C)O)[C@@H](C)CC)C(=O)N[C@@H](C)C(=O)N[C@@H](CCC(N)=O)C(=O)NC(C)(C)C(=O)N[C@@H](C)C(=O)N[C@@H](Cc1ccccc1)C(=O)N[C@H](C(=O)N[C@@H](CCCNC(=N)N)C(=O)N[C@@H](Cc1c[nH]cn1)C(=O)N[C@@H](CC(C)C)C(=O)N[C@H](C(=O)N[C@@H](CC(N)=O)C(=O)N[C@@H](CCCCNC(=O)[C@@H](N)CCCCNC(=O)CC[C@H](NC(=O)CC[C@H](NC(=O)CC[C@H](NC(=O)CC[C@H](NC(=O)CC[C@H](NC(=O)CC[C@H](NC(=O)CCCCCCCCCCCCCCCCC(=O)O)C(=O)O)C(=O)O)C(=O)O)C(=O)O)C(=O)O)C(=O)O)C(=O)NC(C)(C)C(=O)N[C@H](C(=O)N[C@@H](CCCNC(=N)N)C(=O)N[C@@H](CCC(N)=O)C(=O)N[C@@H](CCCNC(=N)N)C(=O)N[C@@H](Cc1ccc(O)cc1)C(N)=O)[C@@H](C)O)[C@@H](C)CC)C(C)C [Compound 24, Y-Aib-E-G-T-F-T-S-D-Y-S-I-Aib-L-E-K-I-A-Q-Aib-A-F-V-R-H-L-I-N-K(1,3)-Aib-T-R-Q-R-Y-NH2.C18DA-gGlu-gGlu-gGlu-gGlu-gGlu-gGlu-eLys(1,2)]
  solubility: 8100 µg/mL

## CC[C@H](C)[C@H](NC(=O)[C@H](CC(C)C)NC(=O)[C@H](Cc1c[nH]cn1)NC(=O)[C@H](CCCNC(=N)N)NC(=O)[C@@H](NC(=O)[C@H](Cc1ccccc1)NC(=O)[C@H](C)NC(=O)C(C)(C)NC(=O)[C@H](CCC(N)=O)NC(=O)[C@H](C)NC(=O)[C@H](CCC(N)=O)NC(=O)[C@H](CCC(=O)O)NC(=O)[C@H](CC(=O)O)NC(=O)[C@H](CC(C)C)NC(=O)C(C)(C)NC(=O)[C@@H](NC(=O)[C@H](CO)NC(=O)[C@H](Cc1ccc(O)cc1)NC(=O)[C@H](CC(=O)O)NC(=O)[C@H](CO)NC(=O)[C@@H](NC(=O)[C@H](Cc1ccccc1)NC(=O)[C@@H](NC(=O)CNC(=O)[C@H](CCC(=O)O)NC(=O)C(C)(C)NC(=O)[C@@H](N)Cc1ccc(O)cc1)[C@@H](C)O)[C@@H](C)O)[C@@H](C)CC)C(C)C)C(=O)N[C@@H](CC(N)=O)C(=O)N[C@@H](CCCCNC(=O)[C@@H](N)CCCCNC(=O)CC[C@H](NC(=O)[C@H](CCC(=O)O)NC(=O)CC[C@H](NC(=O)CC[C@H](NC(=O)CC[C@H](NC(=O)CC[C@H](NC(=O)CCCCCCCCCCCCCCCCC(=O)O)C(=O)O)C(=O)O)C(=O)O)C(=O)O)C(=O)O)C(=O)NC(C)(C)C(=O)N[C@H](C(=O)N[C@@H](CCCNC(=N)N)C(=O)N[C@@H](CCC(N)=O)C(=O)N[C@@H](CCCNC(=N)N)C(=O)N[C@@H](Cc1ccc(O)cc1)C(N)=O)[C@@H](C)O [Compound 40, Y-Aib-E-G-T-F-T-S-D-Y-S-I-Aib-L-D-E-Q-A-Q-Aib-A-F-V-R-H-L-I-N-K(1,3)-Aib-T-R-Q-R-Y-NH2.C18DA-gGlu-gGlu-gGlu-gGlu-gGlu-gGlu-eLys(1,2)]
  solubility: 9500 µg/mL

## CC[C@H](C)[C@H](NC(=O)[C@H](CC(C)C)NC(=O)[C@H](Cc1c[nH]cn1)NC(=O)[C@H](CCCNC(=N)N)NC(=O)[C@@H](NC(=O)[C@H](Cc1ccccc1)NC(=O)[C@H](C)NC(=O)C(C)(C)NC(=O)[C@H](CCC(N)=O)NC(=O)[C@H](C)NC(=O)[C@H](CCC(N)=O)NC(=O)[C@H](CCCCN)NC(=O)[C@H](CCC(=O)O)NC(=O)[C@H](CC(C)C)NC(=O)C(C)(C)NC(=O)[C@H](CCC(=O)O)NC(=O)[C@H](CO)NC(=O)[C@H](Cc1ccc(O)cc1)NC(=O)[C@H](CC(=O)O)NC(=O)[C@H](CO)NC(=O)[C@@H](NC(=O)[C@H](Cc1ccccc1)NC(=O)[C@@H](NC(=O)CNC(=O)[C@H](CCC(=O)O)NC(=O)C(C)(C)NC(=O)[C@@H](N)Cc1ccc(O)cc1)[C@@H](C)O)[C@@H](C)O)C(C)C)C(=O)N[C@@H](CC(N)=O)C(=O)N[C@@H](CCCCNC(=O)[C@@H](N)CCCCNC(=O)CC[C@H](NC(=O)CC[C@H](NC(=O)CC[C@H](NC(=O)CC[C@H](NC(=O)CC[C@H](NC(=O)CC[C@H](NC(=O)CCCCCCCCCCCCCCCCC(=O)O)C(=O)O)C(=O)O)C(=O)O)C(=O)O)C(=O)O)C(=O)O)C(=O)NC(C)(C)C(=O)N[C@H](C(=O)N[C@@H](CCCNC(=N)N)C(=O)N[C@@H](CCC(N)=O)C(=O)N[C@@H](CCCNC(=N)N)C(=O)N[C@@H](Cc1ccc(O)cc1)C(N)=O)[C@@H](C)O [Compound 112, Y-Aib-E-G-T-F-T-S-D-Y-S-E-Aib-L-E-K-Q-A-Q-Aib-A-F-V-R-H-L-I-N-K(1,3)-Aib-T-R-Q-R-Y-NH2.C18DA-gGlu-gGlu-gGlu-gGlu-gGlu-gGlu-eLys(1,2)]
  solubility: 4400 µg/mL

## CC[C@H](C)[C@H](NC(=O)[C@H](CC(C)C)NC(=O)[C@H](Cc1c[nH]cn1)NC(=O)[C@H](CCCNC(=N)N)NC(=O)[C@@H](NC(=O)[C@H](Cc1ccccc1)NC(=O)[C@H](C)NC(=O)C(C)(C)NC(=O)[C@H](C)NC(=O)[C@H](C)NC(=O)[C@H](CCC(N)=O)NC(=O)[C@H](CCCCN)NC(=O)[C@H](CCC(=O)O)NC(=O)[C@H](CC(C)C)NC(=O)C(C)(C)NC(=O)[C@@H](NC(=O)[C@H](CO)NC(=O)[C@H](Cc1ccc(O)cc1)NC(=O)[C@H](CC(=O)O)NC(=O)[C@H](CO)NC(=O)[C@@H](NC(=O)[C@H](Cc1ccccc1)NC(=O)[C@@H](NC(=O)CNC(=O)[C@H](CCC(=O)O)NC(=O)C(C)(C)NC(=O)[C@@H](N)Cc1ccc(O)cc1)[C@@H](C)O)[C@@H](C)O)[C@@H](C)CC)C(C)C)C(=O)N[C@@H](CC(N)=O)C(=O)N[C@@H](CCCCNC(=O)[C@@H](N)CCCCNC(=O)CC[C@H](NC(=O)CC[C@H](NC(=O)CC[C@H](NC(=O)CC[C@H](NC(=O)CC[C@H](NC(=O)CC[C@H](NC(=O)CCCCCCCCCCCCCCCCC(=O)O)C(=O)O)C(=O)O)C(=O)O)C(=O)O)C(=O)O)C(=O)O)C(=O)NC(C)(C)C(=O)N[C@H](C(=O)N[C@@H](CCCNC(=N)N)C(=O)N[C@@H](CCC(N)=O)C(=O)N[C@@H](CCCNC(=N)N)C(=O)N[C@@H](Cc1ccc(O)cc1)C(N)=O)[C@@H](C)O [Compound 111, Y-Aib-E-G-T-F-T-S-D-Y-S-I-Aib-L-E-K-Q-A-A-Aib-A-F-V-R-H-L-I-N-K(1,3)-Aib-T-R-Q-R-Y-NH2.C18DA-gGlu-gGlu-gGlu-gGlu-gGlu-gGlu-eLys(1,2)]
  solubility: 4000 µg/mL

## CC[C@H](C)[C@H](NC(=O)[C@H](CC(C)C)NC(=O)[C@H](Cc1c[nH]cn1)NC(=O)[C@H](CCCNC(=N)N)NC(=O)[C@@H](NC(=O)[C@H](Cc1ccccc1)NC(=O)[C@H](C)NC(=O)C(C)(C)NC(=O)[C@H](CCC(N)=O)NC(=O)[C@H](C)NC(=O)[C@H](CCC(N)=O)NC(=O)[C@H](CCCCN)NC(=O)[C@H](CCC(=O)O)NC(=O)[C@H](CC(C)C)NC(=O)C(C)(C)NC(=O)[C@@H](NC(=O)[C@H](CO)NC(=O)[C@H](Cc1ccc(O)cc1)NC(=O)[C@H](CC(=O)O)NC(=O)[C@H](CO)NC(=O)[C@@H](NC(=O)[C@H](Cc1ccccc1)NC(=O)[C@@H](NC(=O)CNC(=O)[C@H](CCC(=O)O)NC(=O)C(C)(C)NC(=O)[C@@H](N)Cc1ccc(O)cc1)[C@@H](C)O)[C@@H](C)O)[C@@H](C)CC)C(C)C)C(=O)N[C@@H](CC(N)=O)C(=O)N[C@@H](CCCCNC(=O)CC[C@H](NC(=O)CC[C@H](NC(=O)[C@@H](N)CCCCNC(=O)CC[C@H](NC(=O)CC[C@H](NC(=O)CC[C@H](NC(=O)CC[C@H](NC(=O)CCCCCCCCCCCCCCCCCCC(=O)O)C(=O)O)C(=O)O)C(=O)O)C(=O)O)C(=O)O)C(=O)O)C(=O)NC(C)(C)C(=O)N[C@H](C(=O)N[C@@H](CCCNC(=N)N)C(=O)N[C@@H](CCC(N)=O)C(=O)N[C@@H](CCCNC(=N)N)C(=O)N[C@@H](Cc1ccc(O)cc1)C(N)=O)[C@@H](C)O [Compound 52, Y-Aib-E-G-T-F-T-S-D-Y-S-I-Aib-L-E-K-Q-A-Q-Aib-A-F-V-R-H-L-I-N-K(1,3)-Aib-T-R-Q-R-Y-NH2.C20DA-gGlu-gGlu-gGlu-gGlu-eLys-gGlu-gGlu(1,2)]
  solubility: 9400 µg/mL

## CC[C@H](C)[C@H](NC(=O)[C@H](CC(C)C)NC(=O)[C@H](Cc1c[nH]cn1)NC(=O)[C@H](CCCNC(=N)N)NC(=O)[C@@H](NC(=O)[C@H](Cc1ccccc1)NC(=O)[C@H](C)NC(=O)C(C)(C)NC(=O)[C@H](CCC(N)=O)NC(=O)[C@H](C)NC(=O)[C@H](CCC(=O)O)NC(=O)[C@H](CCCCN)NC(=O)[C@H](CCC(=O)O)NC(=O)[C@H](CC(C)C)NC(=O)C(C)(C)NC(=O)[C@@H](NC(=O)[C@H](CO)NC(=O)[C@H](Cc1ccc(O)cc1)NC(=O)[C@H](CC(=O)O)NC(=O)[C@H](CO)NC(=O)[C@@H](NC(=O)[C@H](Cc1ccccc1)NC(=O)[C@@H](NC(=O)CNC(=O)[C@H](CCC(=O)O)NC(=O)C(C)(C)NC(=O)[C@@H](N)Cc1ccc(O)cc1)[C@@H](C)O)[C@@H](C)O)[C@@H](C)CC)C(C)C)C(=O)N[C@@H](CC(N)=O)C(=O)N[C@@H](CCCCNC(=O)[C@@H](N)CCCCNC(=O)[C@H](CCC(=O)O)NC(=O)CC[C@H](NC(=O)CC[C@H](NC(=O)CC[C@H](NC(=O)CC[C@H](NC(=O)CC[C@H](NC(=O)CCCCCCCCCCCCCCCCCCC(=O)O)C(=O)O)C(=O)O)C(=O)O)C(=O)O)C(=O)O)C(=O)NC(C)(C)C(=O)N[C@H](C(=O)N[C@@H](CCCNC(=N)N)C(=O)N[C@@H](CCC(N)=O)C(=O)N[C@@H](CCCNC(=N)N)C(=O)N[C@@H](Cc1ccc(O)cc1)C(N)=O)[C@@H](C)O [Compound 28, Y-Aib-E-G-T-F-T-S-D-Y-S-I-Aib-L-E-K-E-A-Q-Aib-A-F-V-R-H-L-I-N-K(1,3)-Aib-T-R-Q-R-Y-NH2.C20DA-gGlu-gGlu-gGlu-gGlu-gGlu-gGlu-eLys(1,2)]
  solubility: 10000 µg/mL
